This note sets out measurements from PubChem BioAssay (NCI).

Some test systems named below: SNB-19 CNS; UACC-62 melanoma; T-47D breast; K-562 leukemia; SK-MEL-2 melanoma; HOP-62 NSCLC; NCI/ADR-RES ovarian; DU-145 prostate; HCC-2998 colon; RXF 393 renal; UO-31 renal; HT29 colon.
What all share (experiment): NCI tumour cell line growth inhibition, 48 h

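1) Cells in 96-well plates. 2) Compound, 48 h, 5 concentrations. 3) Linear interpolation between surrounding doses. 4) Unreached endpoint = highest concentration. TGI is the concentration that stops growth completely.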

In the case of `CC[C@]1(Cc2ccc(OC)c(OC)c2)C=[N+]([O-])O[C@H](OCc2ccccc2)[C@@H]1OC(C)=O`, the TGI in the experiment on SNB-19 CNS is > 100 µM; with UACC-62 melanoma it was > 100 µM; in the experiment with T-47D breast, > 100 µM; with K-562 leukemia it was 56.8 µM; in the experiment on SK-MEL-2 melanoma it was 79.3 µM; with HOP-62 NSCLC it was > 100 µM. In addition, the TGI in the experiment with NCI/ADR-RES ovarian is > 100 µM; in the experiment with DU-145 prostate, 93.5 µM; in the experiment on HCC-2998 colon, > 100 µM; in the experiment with RXF 393 renal it was 55.4 µM; in the experiment with UO-31 renal it was > 100 µM; with HT29 colon, 79.9 µM.

With `c1ccc(COC[C@H]2C3OCC([C@H](OCc4ccccc4)[C@H]3OCc3ccccc3)N2Cc2ccccc2)cc1` (stereo partly specified), the TGI was > 100 µM with SNB-19 CNS; > 100 µM in the experiment with UACC-62 melanoma; > 100 µM in the experiment on T-47D breast; > 83 µM with K-562 leukemia; > 100 µM with SK-MEL-2 melanoma; > 100 µM in the experiment with HOP-62 NSCLC. Further, the TGI in the experiment on NCI/ADR-RES ovarian, in the experiment with DU-145 prostate, with HCC-2998 colon, in the experiment on RXF 393 renal, with UO-31 renal and with HT29 colon was > 100 µM throughout.

Take `Nn1c(CCCCCCCCc2n[nH]c(=S)n2N)n[nH]c1=S`: the TGI in the experiment on SNB-19 CNS, in the experiment with UACC-62 melanoma, in the experiment with T-47D breast, in the experiment with K-562 leukemia, in the experiment on SK-MEL-2 melanoma and in the experiment with HOP-62 NSCLC was > 100 µM throughout. Moreover, the TGI in the experiment on NCI/ADR-RES ovarian, in the experiment on DU-145 prostate, in the experiment on HCC-2998 colon, in the experiment with RXF 393 renal, in the experiment on UO-31 renal and in the experiment on HT29 colon was > 100 µM in each case.
